Results reported in US12357619B2, “Noradrenergic and specific serotonergic anxiolytic and antidepressant, method for the production and use thereof” (ALLA CHEM, LLC, priority 2020, dated 2025).

Columns and labels:
[1] = system: people with generalized anxiety disorder (GAD); assay: Randomized double-blind placebo-controlled GAD study, adverse events; format: in vivo, human
Description: (§1) Example 12. Efficacy and safety study of the oral drug of this invention made as a pharmaceutical composition of this invention in capsules. […] During the study, 3 scheduled visits were conducted in Week 2, Week 4, and Week 8 to assess the effectiveness and safety of the therapy as well as drug inventory and administration. During all of those visits, the patient's diary was checked, a drug inventory was made and the patients' compliance was assessed. In addition, adverse events, concomitant therapy, and vital signs were evaluated, urine drug screen was performed, and assessments using Hamilton Anxiety Rating Scale (HARS), Hamilton Depression Scale (HAMD), Clinical Global Impression-Severity (CGI-S), Clinical Global Impression-Improvement (CGI-I), and Visual Analog Scale (VAS) were made; women of child-bearing potential will take a urine pregnancy test. Also, during visits at Week 4 and Week 8 a physical examination was performed, body weight was measured, an ECG was performed in 12 leads and blood and urine samples were obtained for laboratory tests, namely: urinalysis and biochemical blood analysis, PK analysis before and 1 hour after taking the study drug (SD), and urinalysis. At Week 4, a blood sample was also obtained for genotyping by CYP2D6. At Week 8, treatment in the groups was completed, and all patients were prescribed a placebo to be taken during the follow-up period, which lasted 1 week. During this time, a possible development of SD withdrawal syndrome against the background of placebo was evaluated. During the visit at Week 9, the patient's diary was checked, a drug inventory was made and the patients' compliance was assessed. In addition, adverse events, concomitant therapy, and vital signs were evaluated, urine drug screen was performed, and assessments using the Hamilton Anxiety Rating Scale (HARS), Hamilton Depression Scale (HAMD), Clinical Global Impression-Severity (CGI-S), Clinical Global Impression-Improvement (CGI-I), and Visual Analog Scale (VAS) were made; women of child-bearing age will take a urine pregnancy test. At this point, the patients' participation in the study was completed, and they received recommendations for further treatment as part of standard GAD therapy.

[2] = system: people with generalized anxiety disorder (GAD); assay: Randomized double-blind placebo-controlled GAD study, Hamilton anxiety scale (HARS); format: in vivo, human; conditions: for HARS average change (standard error): after 8 weeks; for Patients who attained a 50% HARS total score reduction at Week 8, percentage / Patients who attained a 50% HARS total score reduction at Week 8, X (number): MITT population
Description: as §1

Serotonin 5-HT1A = target: T1, Serotonin 5-HT1A (Homo sapiens, UniProt P08908); assay: Receptor activities, Ki (Table 1); format: binding
T1 sequence (P08908 1-422): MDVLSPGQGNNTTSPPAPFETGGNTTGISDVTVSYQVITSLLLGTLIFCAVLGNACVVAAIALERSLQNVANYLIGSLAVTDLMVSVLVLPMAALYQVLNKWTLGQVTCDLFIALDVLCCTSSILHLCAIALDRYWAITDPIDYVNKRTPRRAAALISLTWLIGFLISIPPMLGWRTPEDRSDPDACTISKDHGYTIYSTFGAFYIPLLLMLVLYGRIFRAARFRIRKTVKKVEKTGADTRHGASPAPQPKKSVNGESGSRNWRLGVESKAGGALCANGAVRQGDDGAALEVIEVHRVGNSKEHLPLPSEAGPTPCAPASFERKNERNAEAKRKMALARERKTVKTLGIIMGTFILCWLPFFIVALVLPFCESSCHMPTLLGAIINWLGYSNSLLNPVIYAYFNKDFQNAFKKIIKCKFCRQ

In the case of Cc1ccc2c(c1)c1c(n2CCc2ccccc2)CCN(C)C1.Cl [A•HCl, 2,8-dimethyl-5-(2-phenylethyl)-2,3,4,5-tetrahydro-1H-pyrido[4,3-b]indole hydrochloride], the “Adverse effect Bitter taste in mouth, pain in the left hypochondrium, %” value ([1]; 40 mg/day, 42 patients) is reported as 0.0%, the “Adverse effect Bitter taste in mouth, pain in the left hypochondrium, N (number of people)” value ([1]; 40 mg/day, 42 patients) is reported as 0 and the “Adverse effect Constipation, %” value ([1]; 40 mg/day, 42 patients) is reported as 0.0%. For the same compound, the “Adverse effect Constipation, N (number of people)” value ([1]; 40 mg/day, 42 patients) was 0, the “Adverse effect Daytime drowsiness, %” value ([1]; 40 mg/day, 42 patients) was 2.4% and the “Adverse effect Daytime drowsiness, N (number of people)” value ([1]; 40 mg/day, 42 patients) was 1. For the same compound, the “Adverse effect Decreased appetite, %” value ([1]; 40 mg/day, 42 patients) was 2.4%, the “Adverse effect Decreased appetite, N (number of people)” value ([1]; 40 mg/day, 42 patients) was 1 and the “Adverse effect Dizziness, %” value ([1]; 40 mg/day, 42 patients) was 0.0%. The “Adverse effect Dizziness, N (number of people)” value ([1]; 40 mg/day, 42 patients) was 0, the “Adverse effect Elevated creatinine kinase level, %” value ([1]; 40 mg/day, 42 patients) was 0.0% and the “Adverse effect Elevated creatinine kinase level, N (number of people)” value ([1]; 40 mg/day, 42 patients) was 0. For the same compound, the “Adverse effect Headache, %” value ([1]; 40 mg/day, 42 patients) was 4.8%, the “Adverse effect Headache, N (number of people)” value ([1]; 40 mg/day, 42 patients) was 2 and the “Adverse effect Impaired concentration, %” value ([1]; 40 mg/day, 42 patients) was 0.0%. For the same compound, the “Adverse effect Impaired concentration, N (number of people)” value ([1]; 40 mg/day, 42 patients) was 0, the “Adverse effect Increased psychic tension, %” value ([1]; 40 mg/day, 42 patients) was 0.0% and the “Adverse effect Increased psychic tension, N (number of people)” value ([1]; 40 mg/day, 42 patients) was 0. For the same compound, the “Adverse effect Insomnia, %” value ([1]; 40 mg/day, 42 patients) was 2.4%, the “Adverse effect Insomnia, N (number of people)” value ([1]; 40 mg/day, 42 patients) was 1 and the “Adverse effect Jaw reduction, %” value ([1]; 40 mg/day, 42 patients) was 0.0%. The “Adverse effect Jaw reduction, N (number of people)” value ([1]; 40 mg/day, 42 patients) was 0, the “Adverse effect Low hemoglobin level, %” value ([1]; 40 mg/day, 42 patients) was 2.4% and the “Adverse effect Low hemoglobin level, N (number of people)” value ([1]; 40 mg/day, 42 patients) was 1. The “Adverse effect Nausea, %” value ([1]; 40 mg/day, 42 patients) was 0.0%, the “Adverse effect Nausea, N (number of people)” value ([1]; 40 mg/day, 42 patients) was 0 and the “Adverse effect Nocturnal awakening, %” value ([1]; 40 mg/day, 42 patients) was 0.0%. The “Adverse effect Nocturnal awakening, N (number of people)” value ([1]; 40 mg/day, 42 patients) was 0, the “Adverse effect Sleepiness, %” value ([1]; 40 mg/day, 42 patients) was 2.4% and the “Adverse effect Sleepiness, N (number of people)” value ([1]; 40 mg/day, 42 patients) was 1. The “Adverse effect Tension in the body (back, arms, legs), %” value ([1]; 40 mg/day, 42 patients) was 0.0%, the “Adverse effect Tension in the body (back, arms, legs), N (number of people)” value ([1]; 40 mg/day, 42 patients) was 0 and the “Adverse effect Tingling in the hands, %” value ([1]; 40 mg/day, 42 patients) was 0.0%. The “Adverse effect Tingling in the hands, N (number of people)” value ([1]; 40 mg/day, 42 patients) was 0, the “Adverse effect Weakness, %” value ([1]; 40 mg/day, 42 patients) was 0.0% and the “Adverse effect Weakness, N (number of people)” value ([1]; 40 mg/day, 42 patients) was 0. For the same compound, the “Adverse effect Bitter taste in mouth, pain in the left hypochondrium, %” value ([1]; 60 mg/day, 44 patients) was 2.3%, the “Adverse effect Bitter taste in mouth, pain in the left hypochondrium, N (number of people)” value ([1]; 60 mg/day, 44 patients) was 1 and the “Adverse effect Constipation, %” value ([1]; 60 mg/day, 44 patients) was 2.3%. The “Adverse effect Constipation, N (number of people)” value ([1]; 60 mg/day, 44 patients) was 1, the “Adverse effect Daytime drowsiness, %” value ([1]; 60 mg/day, 44 patients) was 0.0% and the “Adverse effect Daytime drowsiness, N (number of people)” value ([1]; 60 mg/day, 44 patients) was 0. The “Adverse effect Decreased appetite, %” value ([1]; 60 mg/day, 44 patients) was 0.0%, the “Adverse effect Decreased appetite, N (number of people)” value ([1]; 60 mg/day, 44 patients) was 0 and the “Adverse effect Dizziness, %” value ([1]; 60 mg/day, 44 patients) was 9.1%. The “Adverse effect Dizziness, N (number of people)” value ([1]; 60 mg/day, 44 patients) was 4, the “Adverse effect Elevated creatinine kinase level, %” value ([1]; 60 mg/day, 44 patients) was 2.3% and the “Adverse effect Elevated creatinine kinase level, N (number of people)” value ([1]; 60 mg/day, 44 patients) was 1. For the same compound, the “Adverse effect Headache, %” value ([1]; 60 mg/day, 44 patients) was 13.6%, the “Adverse effect Headache, N (number of people)” value ([1]; 60 mg/day, 44 patients) was 6 and the “Adverse effect Impaired concentration, %” value ([1]; 60 mg/day, 44 patients) was 2.3%. For the same compound, the “Adverse effect Impaired concentration, N (number of people)” value ([1]; 60 mg/day, 44 patients) was 1, the “Adverse effect Increased psychic tension, %” value ([1]; 60 mg/day, 44 patients) was 4.5% and the “Adverse effect Increased psychic tension, N (number of people)” value ([1]; 60 mg/day, 44 patients) was 2. For the same compound, the “Adverse effect Insomnia, %” value ([1]; 60 mg/day, 44 patients) was 0.0%, the “Adverse effect Insomnia, N (number of people)” value ([1]; 60 mg/day, 44 patients) was 0 and the “Adverse effect Jaw reduction, %” value ([1]; 60 mg/day, 44 patients) was 2.3%. For the same compound, the “Adverse effect Jaw reduction, N (number of people)” value ([1]; 60 mg/day, 44 patients) was 1, the “Adverse effect Low hemoglobin level, %” value ([1]; 60 mg/day, 44 patients) was 0.0% and the “Adverse effect Low hemoglobin level, N (number of people)” value ([1]; 60 mg/day, 44 patients) was 0. The “Adverse effect Nausea, %” value ([1]; 60 mg/day, 44 patients) was 4.5%, the “Adverse effect Nausea, N (number of people)” value ([1]; 60 mg/day, 44 patients) was 2 and the “Adverse effect Nocturnal awakening, %” value ([1]; 60 mg/day, 44 patients) was 2.3%. The “Adverse effect Nocturnal awakening, N (number of people)” value ([1]; 60 mg/day, 44 patients) was 1, the “Adverse effect Sleepiness, %” value ([1]; 60 mg/day, 44 patients) was 15.9% and the “Adverse effect Sleepiness, N (number of people)” value ([1]; 60 mg/day, 44 patients) was 7. The “Adverse effect Tension in the body (back, arms, legs), %” value ([1]; 60 mg/day, 44 patients) was 2.3%, the “Adverse effect Tension in the body (back, arms, legs), N (number of people)” value ([1]; 60 mg/day, 44 patients) was 1 and the “Adverse effect Tingling in the hands, %” value ([1]; 60 mg/day, 44 patients) was 2.3%. For the same compound, the “Adverse effect Tingling in the hands, N (number of people)” value ([1]; 60 mg/day, 44 patients) was 1, the “Adverse effect Weakness, %” value ([1]; 60 mg/day, 44 patients) was 6.8% and the “Adverse effect Weakness, N (number of people)” value ([1]; 60 mg/day, 44 patients) was 3. For the same compound, the “Safety profile and tolerability in patients” value ([1]; GAD patients, 40 and 60 mg/day, 8 weeks) was “favorable safety profile and good tolerability”, the Side effects observed ([1]; dose of 60 mg, GAD patients) was “headache, drowsiness, dizziness, weakness, nausea, increased anxiety” and the “HARS average change (standard error)” value ([2]; 40 mg, N = 42, average at Week 0 26.9) was −13.4 (1.37). The “HARS average change (standard error)” value ([2]; 60 mg, N = 44, average at Week 0 26.5) was −12.9 (1.37), the “Patients who attained a 50% HARS total score reduction at Week 8, percentage” value ([2]; Dose 60 mg, N = 40) was “(55.0%)” and the “Patients who attained a 50% HARS total score reduction at Week 8, X (number)” value ([2]; Dose 60 mg, N = 40, of Y = 40 patients) was 22. The “Patients who attained a 50% HARS total score reduction at Week 8, percentage” value ([2]; printed Dose 60 mg, N = 42) was “(47.6%)”, the “Patients who attained a 50% HARS total score reduction at Week 8, X (number)” value ([2]; printed Dose 60 mg, N = 42, of Y = 42 patients) was 20 and the Ki (Serotonin 5-HT1A) was 61 nM.
